Measured values from ChEMBL document CHEMBL4184210, “Optimization of novel monobactams with activity against carbapenem-resistant Enterobacteriaceae - Identification of LYS228” (Bioorg Med Chem Lett, 2018).
In brackets after ≈: the same amount, converted by molar mass.

Tests used:
Escherichia coli [1] = experiment: microbe, parasite or virus in culture
Description: Antimicrobial activity against Escherichia coli expressing beta-lactamase VIM-1 by CLSI broth microdilution method

Escherichia coli [2] = experiment: microbe, parasite or virus in culture; remark: listed apart in the source
Description: Antimicrobial activity against Escherichia coli expressing beta-lactamase TEM-10 by CLSI broth microdilution method

Escherichia coli [3] = experiment: microbe, parasite or virus in culture; remark: listed apart in the source
Description: Antimicrobial activity against Escherichia coli expressing beta-lactamase CTXM-15 by CLSI broth microdilution method

Escherichia coli [4] = experiment: microbe, parasite or virus in culture; remark: listed apart in the source
Description: Antimicrobial activity against Escherichia coli expressing beta-lactamase KPC-8 by CLSI broth microdilution method

Escherichia coli [5] = experiment: microbe, parasite or virus in culture; remark: listed apart in the source
Description: Antimicrobial activity against Escherichia coli expressing beta-lactamase Oxa-160 by CLSI broth microdilution method

Escherichia coli [6] = experiment: microbe, parasite or virus in culture; remark: listed apart in the source
Description: Antimicrobial activity against Escherichia coli expressing beta-lactamase TEM-24 by CLSI broth microdilution method

Escherichia coli [7] = experiment: microbe, parasite or virus in culture; remark: listed apart in the source
Description: Antimicrobial activity against Escherichia coli expressing beta-lactamase CMY-2 by CLSI broth microdilution method

Escherichia coli [8] = experiment: microbe, parasite or virus in culture; remark: listed apart in the source
Description: Antimicrobial activity against Escherichia coli expressing beta-lactamase Oxa-10 by CLSI broth microdilution method

Escherichia coli [9] = experiment: Antimicrobial activity against Escherichia coli expressing beta-lactamase VEB-1 by CLSI broth microdilution method; type: functional
Escherichia coli [10] = experiment: microbe, parasite or virus in culture; remark: listed apart in the source
Description: Antimicrobial activity against Escherichia coli expressing beta-lactamase GIM-1 by CLSI broth microdilution method

Escherichia coli [11] = experiment: microbe, parasite or virus in culture; remark: listed apart in the source
Description: Antimicrobial activity against Escherichia coli expressing beta-lactamase Oxa-48 by CLSI broth microdilution method

Escherichia coli [12] = experiment: microbe, parasite or virus in culture; remark: listed apart in the source
Description: Antimicrobial activity against Escherichia coli expressing beta-lactamase P99 by CLSI broth microdilution method

Escherichia coli [13] = experiment: microbe, parasite or virus in culture; remark: listed apart in the source
Description: Antimicrobial activity against Escherichia coli expressing beta-lactamase Oxa-225 by CLSI broth microdilution method

Escherichia coli [14] = experiment: Antimicrobial activity against Escherichia coli expressing beta-lactamase TEM-1 by CLSI broth microdilution method; type: functional
Escherichia coli [15] = experiment: microbe, parasite or virus in culture; remark: listed apart in the source
Description: Antimicrobial activity against Escherichia coli expressing beta-lactamase NMC-A by CLSI broth microdilution method

Escherichia coli [16] = experiment: microbe, parasite or virus in culture; remark: listed apart in the source
Description: Antimicrobial activity against Escherichia coli expressing beta-lactamase IMP-1 by CLSI broth microdilution method

Escherichia coli [17] = experiment: microbe, parasite or virus in culture; remark: listed apart in the source
Description: Antimicrobial activity against Escherichia coli expressing beta-lactamase MIR-1 by CLSI broth microdilution method

Enterobacteriaceae = experiment: Antimicrobial activity against ESBL, KPC and MBL producing Enterobacteriaceae by CLSI broth microdilution method; type: functional
Escherichia coli [18] = experiment: microbe, parasite or virus in culture; remark: listed apart in the source
Description: Antimicrobial activity against Escherichia coli expressing beta-lactamase TEM-16 by CLSI broth microdilution method

Escherichia coli [19] = experiment: microbe, parasite or virus in culture; remark: listed apart in the source
Description: Antimicrobial activity against Escherichia coli expressing beta-lactamase SPM-1 by CLSI broth microdilution method

Pseudomonas aeruginosa = experiment: Antimicrobial activity against Pseudomonas aeruginosa expressing delta-mexB/delta-mexXY/delta-mexCD and delta-ampC mutant by CLSI broth microdilution method; type: functional
Mus musculus = experiment: Toxicity in CD1 mouse assessed as induction of convulsion at 100 mg/kg, icv measured 1 hr after post dose; type: organism-based; conditions: in vivo, icv_or_intrathecal
in vitro [20] = conditions: human, plasma
Description: Protein binding in human plasma

[21] = Half life in dog at 10 mg/kg, iv; type: ADME, organism-based, Canis lupus familiaris; conditions: in vivo
[22] = Volume of distribution in mouse at 10 mg/kg, iv; type: ADME, organism-based; conditions: in vivo
[23] = Stability assessed as assessed as Escherichia coli beta-lactamase KPC-2-mediated compound hydrolysis by measuring molar enthalpy of hydrolysis at 1 mM by isothermal titration calorimetry; type: ADME; conditions: 1000 µM
[24] = Drug excretion in rat assessed as unchanged parent drug level at 10 mg/kg, iv; type: ADME, organism-based; conditions: in vivo, read-out: Drug excretion
[25] = Clearance in dog at 10 mg/kg, iv; type: ADME, organism-based, Canis lupus familiaris; conditions: in vivo
[26] = AUC in mouse at 10 mg/kg, iv; type: ADME, organism-based; conditions: in vivo
[27] = AUC in dog at 10 mg/kg, iv; type: ADME, organism-based, Canis lupus familiaris; conditions: in vivo
Klebsiella pneumoniae [28] = experiment: Antimicrobial activity against Klebsiella pneumoniae expressing beta-lactamase NDM-1 infected in neutropenic mouse thigh infection model assessed as compound dose causing 1 log10 CFU reduction in bacterial load dosed subcutaneously every 4 hrs; type: functional
in vitro [29] = conditions: mouse, plasma
Description: Protein binding in mouse plasma

in vitro [30] = conditions: rat, plasma
Description: Protein binding in rat plasma

[31] = Clearance in mouse at 10 mg/kg, iv; type: ADME, organism-based; conditions: in vivo
Klebsiella pneumoniae [32] = experiment: Antimicrobial activity against Klebsiella pneumoniae expressing beta-lactamase NDM-1 infected in neutropenic mouse thigh infection model assessed as fT>MIC for causing 1 log10 CFU reduction in bacterial load dosed subcutaneously every 4 hrs; type: functional
in vitro [33] = conditions: dog, plasma
Description: Protein binding in dog plasma

Klebsiella pneumoniae [34] = experiment: Antimicrobial activity against Klebsiella pneumoniae expressing beta-lactamase NDM-1 by CLSI broth microdilution method; type: functional
[35] = Volume of distribution in rat at 10 mg/kg, iv; type: ADME, organism-based; conditions: in vivo
[36] = Volume of distribution in dog at 10 mg/kg, iv; type: ADME, organism-based, Canis lupus familiaris; conditions: in vivo
[37] = Clearance in rat at 10 mg/kg, iv; type: ADME, organism-based; conditions: in vivo
[38] = Drug excretion in dog assessed as unchanged parent drug level at 10 mg/kg, iv; type: ADME, organism-based, Canis lupus familiaris; conditions: in vivo, read-out: Drug excretion
[39] = Half life in mouse at 10 mg/kg, iv; type: ADME, organism-based; conditions: in vivo
[40] = Half life in rat at 10 mg/kg, iv; type: ADME, organism-based; conditions: in vivo
[41] = AUC in rat at 10 mg/kg, iv; type: ADME, organism-based; conditions: in vivo

SMILES: N=C(N)NCc1cn(C[C@@H]2[C@H](NC(=O)/C(=N\OC3(C(=O)O)CC3)c3csc(N)n3)C(=O)N2S(=O)(=O)O)nn1 (stereo in doubt)
- MIC (Escherichia coli [1]): 0.125 mg/L (≈ 0.219 µM)
- MIC (Escherichia coli [2]): 0.5 mg/L (≈ 0.875 µM)
- MIC (Escherichia coli [3]): 0.125 mg/L (≈ 0.219 µM)
- MIC (Escherichia coli [4]): 1 mg/L (≈ 1.75 µM)
- MIC (Escherichia coli [5]): 0.25 mg/L (≈ 0.437 µM)
- MIC (Escherichia coli [6]): 0.25 mg/L (≈ 0.437 µM)
- MIC (Escherichia coli [7]): 0.25 mg/L (≈ 0.437 µM)
- MIC (Escherichia coli [8]): 0.25 mg/L (≈ 0.437 µM)
- MIC (Escherichia coli [9]): 16 mg/L (≈ 28 µM)
- MIC (Escherichia coli [10]): 0.03 mg/L (≈ 0.0525 µM)
- MIC (Escherichia coli [11]): 0.125 mg/L (≈ 0.219 µM)
- MIC (Escherichia coli [12]): 0.25 mg/L (≈ 0.437 µM)
- MIC (Escherichia coli [13]): 0.25 mg/L (≈ 0.437 µM)
- MIC (Escherichia coli [14]): 0.125 mg/L (≈ 0.219 µM)
- MIC (Escherichia coli [15]): 0.125 mg/L (≈ 0.219 µM)
- MIC (Escherichia coli [16]): 0.125 mg/L (≈ 0.219 µM)
- MIC (Escherichia coli [17]): 0.5 mg/L (≈ 0.875 µM)
- MIC90 (Enterobacteriaceae): 2 mg/L (≈ 3.5 µM)
- MIC (Escherichia coli [18]): 0.25 mg/L (≈ 0.437 µM)
- MIC (Escherichia coli [19]): 0.125 mg/L (≈ 0.219 µM)

SMILES: N=C(N)NCc1cnn(C[C@@H]2[C@H](NC(=O)/C(=N\OC3(C(=O)O)CC3)c3csc(N)n3)C(=O)N2S(=O)(=O)O)n1 (stereo in doubt)
- MIC (Escherichia coli [1]): 0.06 mg/L (≈ 0.105 µM)
- MIC (Escherichia coli [2]): 1 mg/L (≈ 1.75 µM)
- MIC (Escherichia coli [3]): 0.125 mg/L (≈ 0.219 µM)
- MIC (Pseudomonas aeruginosa): 0.25 mg/L (≈ 0.437 µM)
- MIC (Escherichia coli [4]): 1 mg/L (≈ 1.75 µM)
- MIC (Escherichia coli [5]): 0.125 mg/L (≈ 0.219 µM)
- MIC (Escherichia coli [6]): 0.25 mg/L (≈ 0.437 µM)
- MIC (Escherichia coli [7]): 0.5 mg/L (≈ 0.875 µM)
- MIC (Escherichia coli [8]): 0.25 mg/L (≈ 0.437 µM)
- MIC (Escherichia coli [9]): 16 mg/L (≈ 28 µM)
- MIC (Escherichia coli [10]): 0.125 mg/L (≈ 0.219 µM)
- MIC (Escherichia coli [11]): 0.06 mg/L (≈ 0.105 µM)
- MIC (Escherichia coli [12]): 0.25 mg/L (≈ 0.437 µM)
- MIC (Escherichia coli [13]): 0.25 mg/L (≈ 0.437 µM)
- MIC (Escherichia coli [14]): 0.125 mg/L (≈ 0.219 µM)
- MIC (Escherichia coli [15]): 0.125 mg/L (≈ 0.219 µM)
- MIC (Escherichia coli [16]): 0.125 mg/L (≈ 0.219 µM)
- MIC (Escherichia coli [17]): 0.5 mg/L (≈ 0.875 µM)
- MIC90 (Enterobacteriaceae): 4 mg/L (≈ 7 µM)
- MIC (Escherichia coli [18]): 0.5 mg/L (≈ 0.875 µM)
- MIC (Escherichia coli [19]): 0.06 mg/L (≈ 0.105 µM)

SMILES: NC[C@@H]1CN(C[C@@H]2[C@H](NC(=O)/C(=N\OC3(C(=O)O)CC3)c3csc(N)n3)C(=O)N2S(=O)(=O)O)C(=O)O1 (stereo in doubt)
- MIC (Escherichia coli [1]): 0.06 mg/L (≈ 0.11 µM)
- MIC (Escherichia coli [2]): 1 mg/L (≈ 1.83 µM)
- MIC (Escherichia coli [3]): 0.125 mg/L (≈ 0.228 µM)
- MIC (Pseudomonas aeruginosa): 16 mg/L (≈ 29.2 µM)
- MIC (Escherichia coli [4]): 1 mg/L (≈ 1.83 µM)
- MIC (Escherichia coli [5]): 0.25 mg/L (≈ 0.457 µM)
- MIC (Escherichia coli [6]): 0.125 mg/L (≈ 0.228 µM)
- MIC (Escherichia coli [7]): 0.125 mg/L (≈ 0.228 µM)
- MIC (Escherichia coli [8]): 0.125 mg/L (≈ 0.228 µM)
- MIC (Escherichia coli [9]): 32 mg/L (≈ 58.4 µM)
- MIC (Escherichia coli [10]): 0.03 mg/L (≈ 0.0548 µM)
- MIC (Escherichia coli [11]): 0.06 mg/L (≈ 0.11 µM)
- MIC (Escherichia coli [12]): 0.125 mg/L (≈ 0.228 µM)
- MIC (Escherichia coli [13]): 0.5 mg/L (≈ 0.913 µM)
- MIC (Escherichia coli [14]): 0.125 mg/L (≈ 0.228 µM)
- MIC (Escherichia coli [15]): 0.125 mg/L (≈ 0.228 µM)
- MIC (Escherichia coli [16]): 0.06 mg/L (≈ 0.11 µM)
- Activity (Mus musculus): Toxic
- MIC (Escherichia coli [17]): ≤ 0.06 mg/L
- MIC90 (Enterobacteriaceae): 1 mg/L (≈ 1.83 µM)
- MIC (Escherichia coli [18]): 0.125 mg/L (≈ 0.228 µM)
- MIC (Escherichia coli [19]): 0.06 mg/L (≈ 0.11 µM)

SMILES: Nc1nc(/C(=N/OC2(C(=O)O)CC2)C(=O)N[C@@H]2C(=O)N(S(=O)(=O)O)[C@@H]2CN2CCOC2=O)cs1 (stereo in doubt) [ANCREMONAM]
- MIC (Escherichia coli [1]): 0.125 mg/L (≈ 0.241 µM)
- fraction unbound (in vitro [20]): 0.87
- MIC (Escherichia coli [2]): 1 mg/L (≈ 1.93 µM)
- half-life [21]: 48 min
- MIC (Escherichia coli [3]): 0.125 mg/L (≈ 0.241 µM)
- Vd [22]: 0.3 L/kg
- MIC (Pseudomonas aeruginosa): 1 mg/L (≈ 1.93 µM)
- Stability [23]: Stable
- dose excreted [24]: 30%
- clearance [25]: 0.24 L/h/kg
- AUC [26]: 10 µg·h/mL
- AUC [27]: 13 µg·h/mL
- Activity (Klebsiella pneumoniae [28]): 1590 mg/kg/day
- MIC (Escherichia coli [4]): 0.125 mg/L (≈ 0.241 µM)
- MIC (Escherichia coli [5]): 1 mg/L (≈ 1.93 µM)
- fraction unbound (in vitro [29]): 0.74
- MIC (Escherichia coli [6]): 0.5 mg/L (≈ 0.964 µM)
- fraction unbound (in vitro [30]): 0.53
- MIC (Escherichia coli [7]): 0.25 mg/L (≈ 0.482 µM)
- MIC (Escherichia coli [8]): 0.125 mg/L (≈ 0.241 µM)
- MIC (Escherichia coli [9]): 32 mg/L (≈ 61.7 µM)
- clearance [31]: 0.96 L/h/kg
- fT>MIC (Klebsiella pneumoniae [32]): 65%
- MIC (Escherichia coli [10]): 0.125 mg/L (≈ 0.241 µM)
- MIC (Escherichia coli [11]): 0.125 mg/L (≈ 0.241 µM)
- fraction unbound (in vitro [33]): 0.76
- MIC (Klebsiella pneumoniae [34]): 1 mg/L (≈ 1.93 µM)
- Vd [35]: 0.3 L/kg
- MIC (Escherichia coli [12]): 0.25 mg/L (≈ 0.482 µM)
- MIC (Escherichia coli [13]): 1 mg/L (≈ 1.93 µM)
- MIC (Escherichia coli [14]): 0.25 mg/L (≈ 0.482 µM)
- Vd [36]: 0.2 L/kg
- MIC (Escherichia coli [15]): 0.125 mg/L (≈ 0.241 µM)
- MIC (Escherichia coli [16]): 0.125 mg/L (≈ 0.241 µM)
- clearance [37]: 0.54 L/h/kg
- Activity (Mus musculus): Non-Toxic
- MIC (Escherichia coli [17]): 0.125 mg/L (≈ 0.241 µM)
- dose excreted [38]: 34%
- half-life [39]: 18 min
- MIC90 (Enterobacteriaceae): 2 mg/L (≈ 3.86 µM)
- MIC (Escherichia coli [18]): 0.25 mg/L (≈ 0.482 µM)
- half-life [40]: 36 min
- AUC [41]: 19 µg·h/mL
- MIC (Escherichia coli [19]): 0.125 mg/L (≈ 0.241 µM)
